≈ marks a conversion by molar mass, not a printed value.
What was measured:
[1] = target: T1, Carnitine O-palmitoyltransferase 1, liver isoform (Rattus norvegicus, UniProt P32198); assay: (§1) SUPPLEMENTARY: Inhibition of Carnitine palmitoyltransferase 1, liver isoform
T1 sequence (P32198 whole entry): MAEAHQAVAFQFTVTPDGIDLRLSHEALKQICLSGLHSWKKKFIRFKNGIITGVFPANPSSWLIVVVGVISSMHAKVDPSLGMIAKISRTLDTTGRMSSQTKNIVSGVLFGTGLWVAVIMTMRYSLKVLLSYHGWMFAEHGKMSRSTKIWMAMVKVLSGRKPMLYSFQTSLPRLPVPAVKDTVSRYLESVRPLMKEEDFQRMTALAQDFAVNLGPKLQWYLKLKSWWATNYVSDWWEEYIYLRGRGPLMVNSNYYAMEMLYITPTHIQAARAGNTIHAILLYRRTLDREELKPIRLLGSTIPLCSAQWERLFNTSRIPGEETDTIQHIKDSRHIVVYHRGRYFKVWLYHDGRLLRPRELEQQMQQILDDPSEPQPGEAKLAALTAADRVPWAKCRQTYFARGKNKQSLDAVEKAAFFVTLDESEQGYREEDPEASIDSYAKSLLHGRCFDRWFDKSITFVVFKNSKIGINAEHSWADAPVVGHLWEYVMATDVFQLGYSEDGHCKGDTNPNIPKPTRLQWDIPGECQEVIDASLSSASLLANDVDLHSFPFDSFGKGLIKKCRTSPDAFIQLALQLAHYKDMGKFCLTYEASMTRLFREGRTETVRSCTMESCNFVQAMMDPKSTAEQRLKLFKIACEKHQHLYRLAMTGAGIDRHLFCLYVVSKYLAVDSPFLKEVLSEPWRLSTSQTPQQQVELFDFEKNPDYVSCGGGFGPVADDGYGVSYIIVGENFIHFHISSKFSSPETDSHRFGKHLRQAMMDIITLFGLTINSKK

[2] = target: T2, Carnitine O-palmitoyltransferase 1, liver isoform (Homo sapiens, UniProt P50416); assay: as §1
T2 sequence (P50416 whole entry): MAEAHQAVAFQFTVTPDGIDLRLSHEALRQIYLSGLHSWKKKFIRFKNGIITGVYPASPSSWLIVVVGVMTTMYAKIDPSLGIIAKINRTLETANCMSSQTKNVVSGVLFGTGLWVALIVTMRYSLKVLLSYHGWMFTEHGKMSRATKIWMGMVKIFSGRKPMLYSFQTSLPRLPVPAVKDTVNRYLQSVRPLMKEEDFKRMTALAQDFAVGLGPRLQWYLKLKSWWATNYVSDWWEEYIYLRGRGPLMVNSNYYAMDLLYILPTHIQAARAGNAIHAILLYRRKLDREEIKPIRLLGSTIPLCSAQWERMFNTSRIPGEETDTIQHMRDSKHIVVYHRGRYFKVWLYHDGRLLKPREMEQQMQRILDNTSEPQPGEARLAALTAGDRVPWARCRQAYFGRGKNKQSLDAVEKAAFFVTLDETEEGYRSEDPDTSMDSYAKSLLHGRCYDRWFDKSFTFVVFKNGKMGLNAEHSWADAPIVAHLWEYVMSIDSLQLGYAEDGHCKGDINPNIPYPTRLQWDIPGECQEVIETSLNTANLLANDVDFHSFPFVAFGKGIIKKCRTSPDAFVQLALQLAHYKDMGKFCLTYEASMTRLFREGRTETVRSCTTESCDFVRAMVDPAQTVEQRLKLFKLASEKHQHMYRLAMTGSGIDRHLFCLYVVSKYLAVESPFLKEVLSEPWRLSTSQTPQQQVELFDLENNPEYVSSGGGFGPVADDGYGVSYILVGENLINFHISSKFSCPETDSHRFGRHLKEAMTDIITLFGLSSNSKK

[3] = target: T3, Carnitine O-palmitoyltransferase 1, muscle isoform (Homo sapiens, UniProt Q92523); assay: SUPPLEMENTARY: Inhibition of Carnitine palmitoyltransferase 1, muscle isoform; set-up: species or system Muscle tissue
T3 sequence (Q92523 whole entry): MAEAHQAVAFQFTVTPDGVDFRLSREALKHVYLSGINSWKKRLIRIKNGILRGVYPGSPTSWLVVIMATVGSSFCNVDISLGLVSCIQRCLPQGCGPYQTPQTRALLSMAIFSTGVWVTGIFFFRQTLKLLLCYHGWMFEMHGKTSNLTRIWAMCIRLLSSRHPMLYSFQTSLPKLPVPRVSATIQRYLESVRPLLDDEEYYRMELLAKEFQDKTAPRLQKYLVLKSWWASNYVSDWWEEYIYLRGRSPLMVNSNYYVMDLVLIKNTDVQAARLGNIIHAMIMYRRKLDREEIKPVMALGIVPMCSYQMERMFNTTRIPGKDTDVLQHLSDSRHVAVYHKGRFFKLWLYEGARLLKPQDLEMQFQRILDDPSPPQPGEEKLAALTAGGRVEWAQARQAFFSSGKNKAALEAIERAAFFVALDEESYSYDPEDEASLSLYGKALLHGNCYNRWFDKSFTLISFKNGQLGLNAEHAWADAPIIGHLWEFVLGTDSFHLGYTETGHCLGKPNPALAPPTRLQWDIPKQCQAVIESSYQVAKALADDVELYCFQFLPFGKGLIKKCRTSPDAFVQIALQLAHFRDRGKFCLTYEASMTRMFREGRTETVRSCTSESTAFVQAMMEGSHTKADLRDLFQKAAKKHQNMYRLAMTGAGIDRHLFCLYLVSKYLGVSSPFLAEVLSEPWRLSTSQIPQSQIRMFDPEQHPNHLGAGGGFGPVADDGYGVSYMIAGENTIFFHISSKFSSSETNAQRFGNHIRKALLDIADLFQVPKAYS

[4] = SUPPLEMENTARY: Lyophilisation Solubility Assay (LYSA); assay type: physicochemical; conditions: read-out: Kinetic_solubility
[5] = target: T4, Carnitine O-palmitoyltransferase 2, mitochondrial (Homo sapiens, UniProt P23786); assay: (§2) SUPPLEMENTARY: Inhibition of Carnitine palmitoyltransferase 2
T4 sequence (P23786 whole entry): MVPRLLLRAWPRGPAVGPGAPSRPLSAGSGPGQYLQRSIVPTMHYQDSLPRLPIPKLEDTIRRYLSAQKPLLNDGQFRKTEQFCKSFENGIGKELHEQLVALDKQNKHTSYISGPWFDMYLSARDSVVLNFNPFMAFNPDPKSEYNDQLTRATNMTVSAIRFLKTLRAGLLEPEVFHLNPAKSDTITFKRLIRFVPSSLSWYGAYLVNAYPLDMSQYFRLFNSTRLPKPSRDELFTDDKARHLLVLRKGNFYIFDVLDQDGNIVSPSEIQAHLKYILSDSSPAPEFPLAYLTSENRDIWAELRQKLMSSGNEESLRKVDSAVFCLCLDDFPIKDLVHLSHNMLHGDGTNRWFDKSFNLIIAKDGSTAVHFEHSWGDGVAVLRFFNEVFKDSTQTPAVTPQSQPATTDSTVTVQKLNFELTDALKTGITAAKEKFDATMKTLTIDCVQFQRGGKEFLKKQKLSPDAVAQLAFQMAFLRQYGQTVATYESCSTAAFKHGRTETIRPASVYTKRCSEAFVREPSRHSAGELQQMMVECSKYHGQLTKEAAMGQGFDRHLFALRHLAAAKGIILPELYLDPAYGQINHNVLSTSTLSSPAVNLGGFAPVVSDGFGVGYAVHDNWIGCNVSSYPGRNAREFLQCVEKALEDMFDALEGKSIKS

[6] = target: T5, Carnitine O-palmitoyltransferase 2, mitochondrial (Rattus norvegicus, UniProt P18886); assay: as §2
T5 sequence (P18886 whole entry): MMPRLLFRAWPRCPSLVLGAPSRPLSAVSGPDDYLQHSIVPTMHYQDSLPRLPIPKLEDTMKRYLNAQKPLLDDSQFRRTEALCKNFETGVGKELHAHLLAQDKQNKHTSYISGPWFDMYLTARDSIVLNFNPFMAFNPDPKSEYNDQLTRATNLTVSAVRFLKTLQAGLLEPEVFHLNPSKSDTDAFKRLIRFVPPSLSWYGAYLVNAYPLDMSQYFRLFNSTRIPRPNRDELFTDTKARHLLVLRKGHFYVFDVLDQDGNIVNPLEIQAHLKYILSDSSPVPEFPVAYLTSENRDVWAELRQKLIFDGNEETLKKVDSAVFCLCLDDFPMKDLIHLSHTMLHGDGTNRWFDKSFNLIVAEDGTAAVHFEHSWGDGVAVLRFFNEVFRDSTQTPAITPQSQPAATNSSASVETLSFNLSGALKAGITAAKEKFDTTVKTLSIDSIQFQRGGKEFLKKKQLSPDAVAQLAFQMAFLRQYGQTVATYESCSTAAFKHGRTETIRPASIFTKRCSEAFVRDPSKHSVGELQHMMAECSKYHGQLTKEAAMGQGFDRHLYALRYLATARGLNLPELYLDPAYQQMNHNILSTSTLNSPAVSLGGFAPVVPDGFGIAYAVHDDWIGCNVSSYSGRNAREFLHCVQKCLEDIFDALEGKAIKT

[7] = SUPPLEMENTARY: PAMPA permeability assay; assay type: physicochemical; conditions: read-out: Permeability
[8] = SUPPLEMENTARY: Lipophilicity (log D) Determination by high-throughput shake-flask; assay type: physicochemical; conditions: octanol/water

| Compound | IC50 [1] [nM] | IC50 [2] [nM] | IC50 [3] [µM] | solubility kinetic [4] [µg/mL] | IC50 [5] [µM] | IC50 [6] [µM] | Papp [7] [×10⁻⁶ cm/s] | logD [8] |
| --- | --- | --- | --- | --- | --- | --- | --- | --- |
| O=C(COc1ccccc1)N1CCCC[C@@H]1c1noc(C2CCCCC2)n1 | 664 | 86.5 | > 100 | < 1 | 47.6 | > 100 | 0.965 | 3.31 |
| NC(=O)c1ccc(-c2csc([C@H]3CCCCN3C(=O)COc3ccccc3)n2)cc1 | 484 | 239 | > 100 | 43 (≈ 102 µM) | 18.9 | 75.2 | 5.48 | 2.26 |
| NC(=O)c1n[nH]c2cc(-c3noc([C@H]4CCCCN4C(=O)COc4ccccc4)n3)ccc12 | 1070 | 63.5 | > 100 | 5 (≈ 11.2 µM) | > 100 | > 100 | 2.35 | 3.04 |
| CCOc1ccc2c(c1)CN(C(=O)[C@H]1CCCCN1C(=O)COc1ccccc1)C2 | 232 | 161 | > 100 | 30 (≈ 73.4 µM) | 0.468 | 0.539 | 5.52 | 3.23 |
| NC(=O)c1cccc(-c2noc([C@H]3CCCCN3C(=O)COc3ccccc3)n2)c1 | 156 | 40.8 | 72.3 | 42 (≈ 103 µM) | 16.7 | 45.7 | 2.55 | 2.57 |
| CCCN(c1cc(C(=O)Nc2ncc(CC(=O)O)s2)cc2c1OCO2)S(=O)(=O)c1cc(Cl)ccc1OC | 61.9 | 181 | 0.703 | 108 (≈ 190 µM) | > 100 | > 100 | 3.56 | 2.74 |
| O=C(COc1ccccc1)N1CCCC[C@@H]1c1noc(C2(C(F)(F)F)CC2)n1 | 1430 | 85.8 | 29.7 | < 1 | > 100 | > 100 | 5.37 | 3.2 |
| N#Cc1cccc(-c2n[nH]c([C@H]3CCCCN3C(=O)COc3ccccc3)n2)c1 | 219 | 161 | > 100 | 31 (≈ 80 µM) | 29.8 | 33.8 | 2.96 | 2.98 |

The next lines start with the values.

| IC50 [1] [nM] | IC50 [2] [nM] | IC50 [3] [µM] | solubility kinetic [4] [µg/mL] | IC50 [5] [µM] | IC50 [6] [µM] | Papp [7] [×10⁻⁶ cm/s] | logD [8] | Compound |
| --- | --- | --- | --- | --- | --- | --- | --- | --- |
| 20.5 | 43.8 | > 100 | < 1 | > 100 | > 100 | 0.06 | 3.4 | COc1ccc(Cl)cc1S(=O)(=O)c1cn(CCO)c2ccc(C(=O)Nc3ccccc3)cc12 |
| 157 | 66.1 | 3.53 | 311 (≈ 581 µM) | 0.591 | 0.967 | 1.52 | 0.66 | COc1ccc(Cl)cc1S(=O)(=O)N1CCc2c(C)cc(C(=O)Nc3ccc(C(=O)O)c(Cl)c3)cc21 |
| 63 | 190 | 1.31 | 528 (≈ 986 µM) | 0.686 | 1.63 | 1.77 | 0.57 | COc1ccc(Cl)cc1S(=O)(=O)N1CC(C)c2ccc(C(=O)Nc3ccc(C(=O)O)c(Cl)c3)cc21 (configuration not stated) |
| 126 | 67.1 | 2.17 | 136 (≈ 284 µM) | 5.51 | 9.03 | 0.94 | 1.83 | COc1ccc(Cl)cc1CN1C(=O)C(C)(C)c2ccc(C(=O)Nc3ccc(C(=O)O)cc3)cc21 |
| 166 | 131 | 5.11 | 380 (≈ 684 µM) | 1.72 | 5.74 | 1.45 | 0.42 | COc1ccc(Cl)cc1S(=O)(=O)N1CCOc2c(F)cc(C(=O)Nc3ccc(C(=O)O)c(Cl)c3)cc21 |
| 100 | 122 | 1.09 | 44 (≈ 79.8 µM) | 78.5 | > 100 | 3.23 | 0.88 | COc1ccc(Cl)cc1S(=O)(=O)N1CCOc2c(Cl)cc(C(=O)Nc3ccc(CC(=O)O)cc3)cc21 |

— ChEMBL document CHEMBL3431459, “Roche carnitine palmitoyltransferase modulator screening data (supplementary data associated with the publication CHEMBL2216752)”
